Legend:
A549 cells [1] = experiment: Mitochondrial superoxide formation (MitoSOX Red) in A549 cells; assay type: cell-based, Human; settings: 1.0 mM polymyxin B alone, 24 h
Method: (§1) The attenuation of mitochondrial superoxide formation and loss of mitochondrial membrane potential caused by polymyxin B were determined. ^18 A549 cells (0.5×10^5 cells/mL) were grown on 8-well chamber slides ([…] polymer coverslip, ibidi, Germany) for overnight at 37° C. Cells were treated with 1.0 mM polymyxin B in the presence and absence of polyaspartic acid (0.25, 1.0 and 5.0 mM). To assess the formation of mitochondrial superoxide and loss of mitochondrial membrane potential MitoSOX Red dye (Invitrogen; excitation and emission wavelengths of 514 and 531 to 622 nm, respectively) and TMRE (Invitrogen; excitation and emission wavelengths of 561 and 568 to 690 nm, respectively) were employed, respectively. Nuclei were stained with Hoechst 33342 (Invitrogen; excitation and emission wavelengths of 405 and 410 to 551 nm, respectively) to allow cell counting. Fluorescence intensity was quantified by confocal laser scanning microscopy (Leica SP8 inverted microscope equipped with a 63× oil immersion objective). The average fluorescence intensity per cell for each treatment was calculated using ImageJ (45, 46). Three random fields containing at least 50 cells per treatment condition were analyzed and the TMRE fluorescence in untreated control cells was set as 100%.

A549 cells [2] = experiment: Mitochondrial membrane potential (TMRE) in A549 cells; assay type: cell-based, Human; settings: 1.0 mM polymyxin B alone; untreated control 100%
Method: as §1

Swiss Albino mice = experiment: In vivo pulmonary toxicity, lung histopathology with semiquantitative scoring (SQS)
Method: The animal study was approved by the Monash Animal Ethics Committee, Monash University (Victoria, Australia). All experiments were conducted in accordance with the Australian Code of Practice for the Care and Use of Animals for Scientific Purposes. Swiss Albino mice (female; age, 6 weeks; body weight, 20 to 25 g) were obtained from the Monash Animal Research Platform (Clayton, Victoria, Australia). […] Animals were housed individually in metabolic cages and had free access to food and water. Mice were intratracheally administered 10 mg/kg of polymyxin B, 120 mg/kg of polyaspartic acid and the combinations of polyaspartic acid with polymyxin B three times a day.
Histopathological examinations of lungs were performed to assess the pulmonary toxicity by polymyxin B. At 24 h following pulmonary administration, mice were humanely killed and lungs were harvested and fixed in formalin immediately. To avoid any potential artificial damage to the lung epithelium, bronchoalveolar lavage and cardiac puncture were not performed. A semiquantitative scoring (SQS) system was employed to quantify the extent of lung damages. ^20 Briefly, we used the following grades for the severity and nature of the histopathological changes in the lungs: grade 0, no changes or mild changes considered insignificant; grade 1, minimal lesions affecting 1 to 25% of the area; grade 2, multifocal lesions affecting 25 to 50% of the area; and grade 3, severe tissue changes affecting >50% of the area. The grades were given the following scores: grade 0, 0.1; grade 1, 1; grade 2, 4; and grade 3, 10. Percentages of damage across different levels of the lungs were given the following scores: <1%, 0; from 1 to <5%, 1; from 5 to <10%, 2; from 10 to <20%, 3; from 20 to <30%, 4; from 30 to <40%, 5; >40%, 6. The overall lung histology score was determined as the product of the grade and percent damage score. An SQS was assigned the following scores: SQS 0, no significant change; SQS+1, mild damage; SQS+2, mild to moderate damage; SQS+3, moderate damage; SQS+4, moderate to severe damage; and SQS+5, severe damage.

A549 cells [3] = experiment: Cell viability of A549 cells, polymyxin B with or without polyaspartic acid, propidium iodide flow cytometry; assay type: cell-based, Human; settings: 1.0 mM polymyxin B alone, 24 h
Method: (§2) Human lung epithelial cells (A549 cells) were obtained from the American Type Culture Collection (ATCC® CCL-185™, Manassas, VA, USA), grown and sub-cultured in Dulbecco's modified Eagle's medium (DMEM) supplemented with 10% fetal bovine serum (FBS). A549 cells (1×10^5 cells/mL, 12-well plate) were seeded in supplemented DMEM at 37° C. in a humidified atmosphere containing 5% CO2 until 70% confluency. All experiments were conducted in three replicates. Cells were treated with 1.0 mM polymyxin B in the presence and absence of polyaspartic acid (0.25, 1.0 and 5.0 mM); and cell viability were examined at 24 h with flow cytometry after staining with propidium iodide. The drug concentrations for different formulations were selected based on our previous results on polymyxin toxicity in human lung epithelial cells. ^18 To assess the protective effect of polyglutamic acid, A549 cells (0.5×10^5 cells/mL, 200 μL/well) were seeded on 96-well plates (#353072, Corning, USA) for overnight at 37° C. Cells were treated with 1.0 mM polymyxin B in the presence and absence of polyglutamic acid (2.5, 5.0 and 10.0 μM). Cell viability was determined at 24 h using propidium iodide staining using EVOS® FL Auto Imaging System (Invitrogen; Approximate fluorescence excitation/emission maxima: 535/617 nm). […] Three random fields containing at least 50 cells per treatment condition were analyzed.

A549 cells [4] = experiment: Cell viability of A549 cells, polymyxin B with or without polyglutamic acid, propidium iodide imaging; assay type: cell-based, Human; settings: 1.0 mM polymyxin B alone, 24 h
Method: as §2

[5] = intratracheal three times a day, 10 mg/kg polymyxin B and/or 120 mg/kg polyaspartic acid, lungs at 24 h

Substance: polymyxin B sulfate
- MitoSOX fluorescence intensity, higher compared to the control (A549 cells [1]): > 200 fold
- Mitochondrial membrane potential compared to the control (A549 cells [2]): 49.5±7.2%
- Histological finding in lung (Swiss Albino mice; [5]): no macroscopic lesion but severe tissue injury
- SQS of lung damage (grade) (Swiss Albino mice; [5]): +2 to +5
- Lung area affected by tissue injury (Swiss Albino mice; intratracheal three times a day, 10 mg/kg polymyxin B or 120 mg/kg polyaspartic acid, lungs at 24 h): 25-50%
- Overall semi-quantitative score (SQS) of lung damage (Swiss Albino mice; mean±SD, 10 mg/kg polymyxin B alone or co-administered with 120 mg/kg polyaspartic acid): 3.0±1.4
- Cell viability (A549 cells [3]): 36.7±5.1%
- Cell viability (A549 cells [4]): 51.7±5.2%

— US20240058375A1, “CO-FORMULATION OF POLYMYXINS FOR INHALATION” (priority 2021, published 2024)
